The source made the active and inactive calls. The rule behind the calls is not given here.
What was measured:
Vibrio harveyi [1] = test: Growth inhibition of Vibrio harveyi assessed as time required to double bacterial growth relative to control; format: functional, organism-based
[2] = molecular target: Autoinducer 2-binding periplasmic protein LuxP (Vibrio harveyi, UniProt P54300); test: Antagonist activity at LuxP receptor in Vibrio harveyi MM32 assessed as inhibition of autoinducer-2-mediated quorum sensing after 3 to 4 hrs; format: functional
Vibrio harveyi [3] = test: Growth inhibition of Vibrio harveyi assessed as time required to double bacterial growth at 20 uM; format: functional

Autoinducer 2-binding periplasmic protein LuxP, sequence (P54300 whole entry): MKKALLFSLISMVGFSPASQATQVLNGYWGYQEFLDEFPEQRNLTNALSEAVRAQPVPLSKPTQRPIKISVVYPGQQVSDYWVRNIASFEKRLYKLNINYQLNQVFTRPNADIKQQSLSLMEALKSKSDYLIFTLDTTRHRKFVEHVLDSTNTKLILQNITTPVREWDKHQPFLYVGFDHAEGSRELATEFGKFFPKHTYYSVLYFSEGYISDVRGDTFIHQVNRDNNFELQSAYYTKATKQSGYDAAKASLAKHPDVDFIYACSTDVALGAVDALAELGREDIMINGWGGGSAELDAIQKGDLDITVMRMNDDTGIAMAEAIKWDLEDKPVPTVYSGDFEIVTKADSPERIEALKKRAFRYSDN

Row | Structure (SMILES) | Activity (Vibrio harveyi [1]) | IC50 [2] | Time (Vibrio harveyi [3])
1 | O=C(O)c1cc(O)c(O)c(O)c1 [GALLIC ACID] | inactive | 50 µM | 
2 | O=Cc1cc(O)c(O)c(O)c1 | inactive | 12 µM | 
3 | CCOC(=O)c1oc(C(=O)OCC)c(O)c1O | inactive |  | 
4 | O[C@@H]1CCC[C@@H]1O | inactive |  | 
5 | Oc1ccccc1O [CATECHOL] | inactive | 59 µM | 
6 | CC(=O)c1ccc(O)c(O)c1O [GALLACETOPHENONE] | inactive | 21 µM | 
7 | O=c1ccc2ccc(O)c(O)c2o1 [DAPHNETIN] | inactive | 12 µM | 
8 | Oc1cccc(O)c1O [PYROGALLOL] |  | 2 µM | 82 min
9 | O=Cc1ccc(O)c(O)c1O | inactive | 4 µM | 
10 | NCCc1cc(O)c(O)c(O)c1 |  | 22 µM | 
11 | O=C(O)c1ccc(O)c(O)c1O | inactive | 61 µM | 
12 | Oc1cccnc1O | inactive |  | 
13 | N#CC(C#N)=Cc1cc(O)c(O)c(O)c1 | inactive |  | 
14 | O=C(c1ccccc1)c1ccc(O)c(O)c1O | inactive | 4 µM | 

— ChEMBL document CHEMBL1141519, “Pyrogallol and its analogs can antagonize bacterial quorum sensing in Vibrio harveyi” (Bioorg Med Chem Lett, 2008)
